Format in all cases: cell-based
The target of test [1] is T1, FAK (Homo sapiens, UniProt Q05397).
T1 construct: expression of target proteins in cells; endogenous in cells
Briefly: Western blot degradation of FAK. The conditions noted are these: A549 Cell; 24 hours. As for the experimental part: (§1) Conventional Western blot assay was performed to evaluate the effects of the compounds of the present disclosure on the expression of target proteins in cells.
(§2) (1) Cell Seeding and Protein Harvesting: The selected cells were processed according to the cell seeding procedure and protein harvesting procedure in Table II-2.
(§3) (2) To the collected supernatant, 5×SDS sample loading buffer was added, followed by denaturation at 95 °C for 5 minutes. The denatured samples were then separated by SDS-PAGE electrophoresis on a polyacrylamide gel. Proteins were transferred to a nitrocellulose membrane (0.45 μm NC membrane), blocked with blocking buffer at room temperature for 1 hour, and subjected to antibody incubation and development procedures according to the antibody manufacturer's instructions (Cell Signaling Technology).
(§4) Half-Maximal Degradation Concentration value (the drug concentration required for degrading proteins by 50%, abbreviated as DC50) reads method: comparing the grayscale values of Western blot bands from drug-treated samples with those from blank DMSO-treated controls, and identifying the drug concentration range at which the grayscale value is half that of the DMSO-treated control bands.
(§5) DC50 values can be calculated using ImageJ software to measure grayscale values of Western blot bands from drug-treated samples. The concentration-response curve is fitted to estimate the drug concentration corresponding to half the grayscale value.
(§6) Target protein remaining (%) refers to the percentage of target protein remaining in cells after treatment with protein degrader compounds.
(§7) Calculation method for target protein remaining (%): Use ImageJ software to measure grayscale values of Western blot bands from drug (protein degrader)-treated samples. The grayscale value of drug-treated bands is divided by that of internal control protein bands, and the resulting quotient is normalized to obtain the relative percentage of remaining target protein after protein degrader treatment.
(§8) Target protein degradation rate (%)=1−target protein remaining (%).
On the technique in general: A western blot detects proteins with antibodies after separation by electrophoresis.

For test [2], the system named is Human Multiple myeloma cell line (MM.1S). Briefly: Inhibition of MM.1S cell proliferation (CellTiter luminescent viability). The note with it: Homo sapiens, MM1.S, 96 hours; for inhibition at 0.01 µM: 10 nM, read-out: Inhibition Rate at 10 nM (%); for inhibition at 0.5 µM: 500 nM, read-out: Inhibition Rate at 500 nM (%). In outline:
(§9)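 IC50 is fitted from luminescent viability (CellTiter-Meiluncell) curves. Nine-point, 5-fold dilution series (top stock 2000 μM) are added at 0.5 μL per 100 μL medium to cells plated the day before, with growth at 37 °C and 5% CO2.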

Test [3] deals with T2, C-ABL (Homo sapiens, UniProt P00519).
T2 construct: K562 also holds p210 BCR-ABL (BCR P11274 fused to ABL1)
T2 sequence (P00519 whole entry, the tested form may be a part): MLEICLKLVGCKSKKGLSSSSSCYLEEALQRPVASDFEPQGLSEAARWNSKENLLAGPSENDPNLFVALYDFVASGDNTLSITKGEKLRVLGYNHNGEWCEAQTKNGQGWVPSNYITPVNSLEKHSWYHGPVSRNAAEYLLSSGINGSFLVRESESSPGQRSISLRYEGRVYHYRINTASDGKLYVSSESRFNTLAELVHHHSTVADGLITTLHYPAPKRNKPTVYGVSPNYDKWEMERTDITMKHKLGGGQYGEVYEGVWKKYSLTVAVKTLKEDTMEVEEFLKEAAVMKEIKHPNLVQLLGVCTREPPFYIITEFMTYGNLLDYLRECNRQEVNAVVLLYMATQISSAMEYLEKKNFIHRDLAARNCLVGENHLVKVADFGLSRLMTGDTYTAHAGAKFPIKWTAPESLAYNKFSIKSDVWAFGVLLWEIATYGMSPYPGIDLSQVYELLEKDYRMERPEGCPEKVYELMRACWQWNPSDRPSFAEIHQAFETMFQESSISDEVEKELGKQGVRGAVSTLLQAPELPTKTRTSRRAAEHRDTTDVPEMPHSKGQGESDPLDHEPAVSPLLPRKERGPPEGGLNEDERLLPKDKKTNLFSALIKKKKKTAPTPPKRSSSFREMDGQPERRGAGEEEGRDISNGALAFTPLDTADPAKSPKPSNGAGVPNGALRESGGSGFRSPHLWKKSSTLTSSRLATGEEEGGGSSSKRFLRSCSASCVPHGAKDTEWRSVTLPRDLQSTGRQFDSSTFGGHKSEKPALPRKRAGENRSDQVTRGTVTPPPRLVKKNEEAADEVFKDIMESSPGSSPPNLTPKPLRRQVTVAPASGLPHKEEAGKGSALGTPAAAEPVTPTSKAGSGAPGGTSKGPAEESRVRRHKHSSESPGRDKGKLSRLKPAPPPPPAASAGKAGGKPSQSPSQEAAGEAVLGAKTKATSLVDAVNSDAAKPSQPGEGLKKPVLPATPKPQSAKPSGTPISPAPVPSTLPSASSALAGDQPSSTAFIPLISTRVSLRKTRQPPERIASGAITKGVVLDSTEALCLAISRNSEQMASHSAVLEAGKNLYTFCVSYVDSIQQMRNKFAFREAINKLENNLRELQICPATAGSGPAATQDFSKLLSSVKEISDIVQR
T2 sequence (Q96SW2 whole entry partner, the tested form may be a part): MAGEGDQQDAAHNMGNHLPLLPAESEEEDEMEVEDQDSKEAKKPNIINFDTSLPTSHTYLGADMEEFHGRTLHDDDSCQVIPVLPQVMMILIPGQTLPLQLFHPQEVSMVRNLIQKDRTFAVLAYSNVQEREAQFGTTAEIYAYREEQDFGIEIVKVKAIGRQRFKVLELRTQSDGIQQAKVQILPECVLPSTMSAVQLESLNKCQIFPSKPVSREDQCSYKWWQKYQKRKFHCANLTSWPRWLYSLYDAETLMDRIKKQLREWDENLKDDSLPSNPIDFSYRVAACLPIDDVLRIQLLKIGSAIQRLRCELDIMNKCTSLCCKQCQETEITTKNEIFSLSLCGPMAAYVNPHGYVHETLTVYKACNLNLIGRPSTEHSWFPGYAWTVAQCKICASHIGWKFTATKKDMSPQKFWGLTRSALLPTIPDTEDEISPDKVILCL
Briefly: Western blot degradation of C-ABL. The conditions noted are these: K562 Cell; 24 hours. The method, then: as §1, §2, §3, §4, §5, §6, §7, §8

Test [4] deals with Human myeloid monocytic leukemia cell line (MV-4-11). Briefly: Inhibition of MV-4-11 cell proliferation (CellTiter luminescent viability). The note with it: Homo sapiens, MV4-11, Table IL2, BCR-ABL inhibitor-based, 96 hours; for inhibition at 0.01 µM: MV-4-11, 10 nM, read-out: Inhibition Rate at 10 nM (%); for inhibition at 0.5 µM: MV-4-11, 500 nM, read-out: Inhibition Rate at 500 nM (%). In outline: as §9

Test [5] concerns Human acute lymphocytic leukemia T lymphocytes cell line (CCRF-CEM). Briefly: Inhibition of CCRF-CEM cell proliferation (CellTiter luminescent viability). The conditions noted are these: Homo sapiens, 96 h, Table IL3, BCR-ABL inhibitor-based; for inhibition at 0.01 µM: 10 nM, read-out: Inhibition Rate at 10 nM (%); for inhibition at 0.5 µM: 500 nM, read-out: Inhibition Rate at 500 nM (%).

Setting [6] is: Table IL1, BCR-ABL inhibitor-based.

What is called inhibition is the drop in the measured response relative to a control, in per cent.

Where two headings read alike, the source gives them in different places.

T1 sequence (Q05397 whole entry): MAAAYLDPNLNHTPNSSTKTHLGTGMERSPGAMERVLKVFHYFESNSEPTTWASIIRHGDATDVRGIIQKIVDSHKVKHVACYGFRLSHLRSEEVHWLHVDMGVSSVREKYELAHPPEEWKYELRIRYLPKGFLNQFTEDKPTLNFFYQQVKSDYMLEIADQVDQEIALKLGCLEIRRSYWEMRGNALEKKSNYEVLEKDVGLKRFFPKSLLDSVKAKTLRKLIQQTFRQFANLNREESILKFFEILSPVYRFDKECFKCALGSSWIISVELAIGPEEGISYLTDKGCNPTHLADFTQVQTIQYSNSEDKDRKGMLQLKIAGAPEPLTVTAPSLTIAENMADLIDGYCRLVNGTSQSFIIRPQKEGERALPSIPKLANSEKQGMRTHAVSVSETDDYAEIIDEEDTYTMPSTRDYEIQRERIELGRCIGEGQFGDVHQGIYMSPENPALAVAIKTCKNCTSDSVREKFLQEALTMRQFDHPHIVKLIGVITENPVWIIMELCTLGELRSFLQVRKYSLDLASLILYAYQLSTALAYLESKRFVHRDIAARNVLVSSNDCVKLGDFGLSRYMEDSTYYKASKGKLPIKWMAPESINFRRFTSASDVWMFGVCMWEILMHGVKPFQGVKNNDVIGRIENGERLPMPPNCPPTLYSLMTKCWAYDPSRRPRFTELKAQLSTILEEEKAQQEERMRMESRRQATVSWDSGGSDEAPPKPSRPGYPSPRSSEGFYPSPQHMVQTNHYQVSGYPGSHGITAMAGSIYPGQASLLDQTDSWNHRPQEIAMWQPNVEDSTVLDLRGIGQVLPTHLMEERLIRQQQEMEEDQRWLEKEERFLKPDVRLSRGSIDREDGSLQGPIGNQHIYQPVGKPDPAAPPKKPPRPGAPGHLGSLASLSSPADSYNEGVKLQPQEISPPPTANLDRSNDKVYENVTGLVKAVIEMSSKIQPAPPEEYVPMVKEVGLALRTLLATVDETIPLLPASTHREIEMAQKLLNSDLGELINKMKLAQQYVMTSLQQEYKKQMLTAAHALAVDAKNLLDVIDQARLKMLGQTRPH

As for `CS(=O)(=O)c1cccc(CNc2nc(Nc3ccc(N4CCN(CC5CCN(c6ccc7c(c6)C(=O)N(N6CCC(=O)NC6=O)C7=O)CC5)CC4)cc3)ncc2C(F)(F)F)c1` [GT-07470, 2-(2,4-dioxotetrahydropyrimidin-1(2H)-yl)-5-(4-((4-(4-((4-((3-(methylsulfonyl)benzyl)amino)-5-(trifluoromethyl)pyrimidin-2-yl)amino)phenyl)piperazin-1-yl)methyl)piperidin-1-yl)isoindoline-1,3-dione], in test [1], the “Degradation of substrate protein FAK (substrate protein remaining %)” value is reported as “A (0%≤substrate protein remaining %≤80%)”.
Consider `CS(=O)(=O)c1cccc(CNc2nc(Nc3ccc(N4CCN(CC5CCN(c6cccc7c6C(=O)N(N6CCC(=O)NC6=O)C7=O)CC5)CC4)cc3)ncc2C(F)(F)F)c1` [GT-07471, 2-(2,4-dioxotetrahydropyrimidin-1(2H)-yl)-4-(4-((4-(4-((4-((3-(methylsulfonyl)benzyl)amino)-5-(trifluoromethyl)pyrimidin-2-yl)amino)phenyl)piperazin-1-yl)methyl)piperidin-1-yl)isoindoline-1,3-dione], for which the “Degradation of substrate protein FAK (substrate protein remaining %)” value in test [1] is listed as “A (0%≤substrate protein remaining %≤80%)”.
Turning to `CNC(=O)c1ccccc1Nc1cc(Nc2ccc(N3CCN(Cc4ccc5c(c4)C(=O)N(N4CCC(=O)NC4=O)C5=O)CC3)cc2OC)ncc1C(F)(F)F` [GT-07661, 2-((2-((4-(4-((2-(2,4-dioxotetrahydropyrimidin-1(2H)-yl)-1,3-dioxoisoindolin-5-yl)methyl)piperazin-1-yl)-2-methoxyphenyl)amino)-5-(trifluoromethyl)pyridin-4-yl)amino)-N-methylbenzamide], in test [1], the “Degradation of substrate protein FAK (substrate protein remaining %)” value was “A (0%≤substrate protein remaining %≤80%)”. In test [2] (Table IG1, FAK inhibitor-based), the inhibition at 0.01 µM fell in the range of 30 to 40% and the inhibition at 0.5 µM fell in the range of 40 to 60%.
As to `CNC(=O)c1ccccc1Nc1cc(Nc2cc(C)c(C3CCN(CC4CCN(c5ccc6c(c5)C(=O)N(N5CCC(=O)NC5=O)C6=O)CC4)CC3)cc2OC(C)C)ncc1C(F)(F)F` [GT-07665, 2-((2-((4-(1-((1-(2-(2,4-dioxotetrahydropyrimidin-1(2H)-yl)-1,3-dioxoisoindolin-5-yl)piperidin-4-yl)methyl)piperidin-4-yl)-2-isopropoxy-5-methylphenyl)amino)-5-(trifluoromethyl)pyridin-4-yl)amino)-N-methylbenzamide], in test [1], the “Degradation of substrate protein FAK (substrate protein remaining %)” value is on record as “A (0%≤substrate protein remaining %≤80%)”.
As for `CNC(=O)c1ccccc1Nc1cc(Nc2cc(C)c(C3CCN(CC4CCN(c5cccc6c5C(=O)N(N5CCC(=O)NC5=O)C6=O)CC4)CC3)cc2OC(C)C)ncc1C(F)(F)F` [GT-07666, 2-((2-((4-(1-((1-(2-(2,4-dioxotetrahydropyrimidin-1(2H)-yl)-1,3-dioxoisoindolin-4-yl)piperidin-4-yl)methyl)piperidin-4-yl)-2-isopropoxy-5-methylphenyl)amino)-5-(trifluoromethyl)pyridin-4-yl)amino)-N-methylbenzamide], in test [1], the “Degradation of substrate protein FAK (substrate protein remaining %)” value is reported as “A (0%≤substrate protein remaining %≤80%)”.
Turning to `Cc1ccc(C(=O)Nc2ccc(CN3CCN(Cc4ccc5c(c4)CN(N4CCC(=O)NC4=O)C5=O)CC3)c(C(F)(F)F)c2)cc1C#Cc1cnc2cccnn12` [GT-08216, N-(4-((4-((2-(2,4-dioxotetrahydropyrimidin-1(2H)-yl)-1-oxoisoindolin-5-yl)methyl)piperazin-1-yl)methyl)-3-(trifluoromethyl)phenyl)-3-(imidazo[1,2-b]pyridazin-3-ylethynyl)-4-methylbenzamide], the “Degradation of substrate protein C-ABL; BCR-ABL (substrate protein remaining %)” value in test [3] is “A (0%≤substrate protein remaining %≤80%)”. In addition, the results for the inhibition at 0.01 µM in test [4], in test [2] (setting [6]) and in test [5] were 80 to 100%, 20 to 30% and 20 to 30%, respectively. Moreover, the inhibition at 0.5 µM in test [4], in test [2] (setting [6]) and in test [5] was 80 to 100% throughout.
Consider `Cc1ccc(C(=O)Nc2ccc(CN3CCN(CC4CCN(c5ccc6c(c5)C(=O)N(N5CCC(=O)NC5=O)C6=O)CC4)CC3)c(C(F)(F)F)c2)cc1C#Cc1cnc2cccnn12` [GT-08352, N-(4-((4-((1-(2-(2,4-dioxotetrahydropyrimidin-1(2H)-yl)-1,3-dioxoisoindolin-5-yl)piperidin-4-yl)methyl)piperazin-1-yl)methyl)-3-(trifluoromethyl)phenyl)-3-(imidazo[1,2-b]pyridazin-3-ylethynyl)-4-methylbenzamide], for which the “Degradation of substrate protein C-ABL; BCR-ABL (substrate protein remaining %)” value in test [3] is reported as “A (0%≤substrate protein remaining %≤80%)”. Moreover, in test [4], the inhibition at 0.01 µM lay in the range of 30 to 40% and the inhibition at 0.5 µM fell in the range of 80 to 100%. Further, in test [5], the inhibition at 0.01 µM was 15 to 20% and the inhibition at 0.5 µM was 20 to 30%.
As for `O=C1CCN(N2C(=O)c3ccc(N4CCC(CN5CCN(c6ncc(C(=O)Nc7ccc(OC(F)(F)Cl)cc7)cc6-c6cc[nH]n6)CC5)CC4)cc3C2=O)C(=O)N1` [GT-08356, N-(4-(chlorodifluoromethoxy)phenyl)-6-(4-((1-(2-(2,4-dioxotetrahydropyrimidin-1(2H)-yl)-1,3-dioxoisoindolin-5-yl)piperidin-4-yl)methyl)piperazin-1-yl)-5-(1H-pyrazol-3-yl)nicotinamide], the “Degradation of substrate protein C-ABL; BCR-ABL (substrate protein remaining %)” value in test [3] is given as “A (0%≤substrate protein remaining %≤80%)”. Also, in test [2] (setting [6]), the inhibition at 0.01 µM lay in the range of 20 to 30% and the inhibition at 0.5 µM was in the range of 30 to 40%.
As for `O=C1CCN(N2C(=O)c3cccc(N4CCC(CN5CCC(N6CCN(c7ncc(C(=O)Nc8ccc(OC(F)(F)Cl)cc8)cc7-c7cc[nH]n7)CC6)CC5)CC4)c3C2=O)C(=O)N1` [GT-08359, N-(4-(chlorodifluoromethoxy)phenyl)-6-(4-(1-((1-(2-(2,4-dioxotetrahydropyrimidin-1(2H)-yl)-1,3-dioxoisoindolin-4-yl)piperidin-4-yl)methyl)piperidin-4-yl)piperazin-1-yl)-5-(1H-pyrazol-3-yl)nicotinamide], the “Degradation of substrate protein C-ABL; BCR-ABL (substrate protein remaining %)” value in test [3] is listed as “A (0%≤substrate protein remaining %≤80%)”. In test [2] (setting [6]), the inhibition at 0.01 µM was 10 to 15% and the inhibition at 0.5 µM was 30 to 40%. Moreover, in test [5], the inhibition at 0.01 µM fell in the range of 15 to 20% and the inhibition at 0.5 µM was in the range of 20 to 30%.
For `O=C1CCN(N2C(=O)c3ccc(N4CCC(CN5CCN(C6CCN(c7ncc(C(=O)Nc8ccc(OC(F)(F)Cl)cc8)cc7-c7cc[nH]n7)CC6)CC5)CC4)cc3C2=O)C(=O)N1` [GT-08360, N-(4-(chlorodifluoromethoxy)phenyl)-6-(4-(4-((1-(2-(2,4-dioxotetrahydropyrimidin-1(2H)-yl)-1,3-dioxoisoindolin-5-yl)piperidin-4-yl)methyl)piperazin-1-yl)piperidin-1-yl)-5-(1H-pyrazol-3-yl)nicotinamide], the “Degradation of substrate protein C-ABL; BCR-ABL (substrate protein remaining %)” value in test [3] is “A (0%≤substrate protein remaining %≤80%)”. In test [2] (setting [6]), the inhibition at 0.01 µM fell in the range of 5 to 10% and the inhibition at 0.5 µM lay in the range of 20 to 30%. Besides, in test [5], the inhibition at 0.01 µM lay in the range of 20 to 30% and the inhibition at 0.5 µM was in the range of 30 to 40%.
Turning to `O=C1CCN(N2C(=O)c3cccc(N4CCC(CN5CCN(C6CCN(c7ncc(C(=O)Nc8ccc(OC(F)(F)Cl)cc8)cc7-c7cc[nH]n7)CC6)CC5)CC4)c3C2=O)C(=O)N1` [GT-08361, N-(4-(chlorodifluoromethoxy)phenyl)-6-(4-(4-((1-(2-(2,4-dioxotetrahydropyrimidin-1(2H)-yl)-1,3-dioxoisoindolin-4-yl)piperidin-4-yl)methyl)piperazin-1-yl)piperidin-1-yl)-5-(1H-pyrazol-3-yl)nicotinamide], the “Degradation of substrate protein C-ABL; BCR-ABL (substrate protein remaining %)” value in test [3] is listed as “A (0%≤substrate protein remaining %≤80%)”. Also, in test [5], the inhibition at 0.01 µM lay in the range of 20 to 30% and the inhibition at 0.5 µM was 20 to 30%.

Source of the values: US20260364184A1, “COMPOUND BASED ON OXOISOINDOLINYL-SUBSTITUTED TETRAHYDROPYRIMIDINE-DIONE AND USE THEREOF” (GLUETACS THERAPEUTICS (SHANGHAI) CO., LTD., priority 2023, published 2026).
